In paper PMC11603075 (Communications Biology, 2024):

Target: T1, KDM5C (Homo sapiens, UniProt P41229)
T1 construct: KDM5C 1– 765; made in house; host or cells: Sf9 cells
T1 sequence (P41229 1-765): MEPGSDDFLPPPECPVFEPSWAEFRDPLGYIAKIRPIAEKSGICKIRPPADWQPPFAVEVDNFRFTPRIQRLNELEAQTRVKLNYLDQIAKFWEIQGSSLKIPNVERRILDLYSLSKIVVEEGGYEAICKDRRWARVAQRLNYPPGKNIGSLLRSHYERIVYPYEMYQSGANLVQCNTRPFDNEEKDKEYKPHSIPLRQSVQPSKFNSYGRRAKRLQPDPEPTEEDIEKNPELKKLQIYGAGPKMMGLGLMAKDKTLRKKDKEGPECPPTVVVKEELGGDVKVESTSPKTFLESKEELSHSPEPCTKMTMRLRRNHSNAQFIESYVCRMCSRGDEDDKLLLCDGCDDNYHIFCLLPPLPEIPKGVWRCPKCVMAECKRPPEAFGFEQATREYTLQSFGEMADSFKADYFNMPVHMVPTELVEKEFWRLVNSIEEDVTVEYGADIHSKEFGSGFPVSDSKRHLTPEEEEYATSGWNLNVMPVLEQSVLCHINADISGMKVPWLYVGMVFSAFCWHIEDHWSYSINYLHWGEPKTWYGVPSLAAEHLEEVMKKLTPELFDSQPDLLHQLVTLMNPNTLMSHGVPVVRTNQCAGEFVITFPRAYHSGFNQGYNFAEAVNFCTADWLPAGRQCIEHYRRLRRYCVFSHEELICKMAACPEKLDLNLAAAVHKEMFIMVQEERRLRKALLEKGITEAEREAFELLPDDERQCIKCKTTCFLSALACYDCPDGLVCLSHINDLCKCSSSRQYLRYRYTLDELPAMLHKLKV
Assay: MALDI–TOF MS demethylation/+16 Da assay, KDM5C
Assay type: biochemical
Details: 90 min
Source text: Fig. 2 Histone H2a fragments are KDM5 and KDM4 substrates. […] See Supplementary Table 6 and Supplementary Fig. 2 for assay conditions and quantification, respectively. […] 0-minute MS spectrum in black, 60/90-minute spectrum in red.
MS-based screening assays with peptides and calf thymus histones were as reported; see Supplementary Table 6 for conditions. Time course assays were based on reported procedures. In brief, equal volumes of the enzyme and substrate solutions were combined to initiate the reaction; 10 µL of 2% (v/v) formic acid (HCOOH) in ddH2O or 100% methanol was added to 10 µL of the reaction mixture to quench reactions at different time points. Unless otherwise stated, time course assays were carried out in triplicate. In some cases, LC–MS was used instead of MALDI-TOF MS to avoid a MALDI matrix induced artefact with the hydroxylated product (Supplementary Fig. 16). […]
Supplementary Figure 2 Histone H2a peptide fragments are substrates of KDM4s and KDM5s.
2 for representative corresponding MALDI–TOF MS traces. Bar graphs comparing % product format ion (+16 Da and demethylation) of H2a(1–20)R3me2a by (a) K DM5 A–D (after 90 minutes) and (b) KDM4A–E ( a ft er 60 minutes), analysed by MALDI– TOF MS. n = (a) 2, (b) 3 (independent assays). See Supplementary Table 6 for assay condit ions. See Figure S13 A 1 for a positive control.
(also on this page, place not known: formation KDM5A–D (after MALDI–TOF conditions. Figure S13A1 KDM4A KDM4B KDM4C KDM4D KDM4E 80% product formation KDM5A KDM5B KDM5C KDM5D % product formation) […]
[ E nz ym e] [Peptide] [2OG] [Ascorbate] [(NH4)2F e(S O4)2] [TCEP] Buffer pH7.5 Enzyme Cognate substrate (mM) (mM) (mM) (mM) (mM) (mM) [HE PE S]
Supplementary Table 6 Summary of MS assay conditions for substrate screening. These conditions enabled efficient turnover of established substrates. Reactions were carried out at 37 °C unless otherwise st ated. […]

Substance: Ac - SGR [ me 2a ] GKQ GGKAR AKAKT R SSR [H2a(1–20)R3me2a, H2a(1–20)R3me2a without a biotin tag]
- +16 Da (% product formation) (replicate 1): 0%
- demethylation (% product formation) (replicate 1): 80.591%
- +16 Da (% product formation) (replicate 2): 0%
- demethylation (% product formation) (replicate 2): 82.588%
